Measurements reported in ChEMBL document CHEMBL1129789, “Dopamine D3 and D4 receptor antagonists: synthesis and structure--activity relationships of (S)-(+)-N-(1-Benzyl-3-pyrrolidinyl)-5-chloro-4- [(cyclopropylcarbonyl) amino]-2-methoxybenzamide (YM-43611) and related compounds” (J Med Chem, 1996).

Assays:
[1] = target: T1, 5-hydroxytryptamine receptor 1A (Rattus norvegicus, UniProt P19327); test: Compound was tested for the Binding affinity against rat hippocampal 5-hydroxytryptamine 1A receptor by Radio ligand [3H]8-OH-DPAT binding assay.; assay type: tissue-based, Hippocampus
T1 sequence (P19327 whole entry): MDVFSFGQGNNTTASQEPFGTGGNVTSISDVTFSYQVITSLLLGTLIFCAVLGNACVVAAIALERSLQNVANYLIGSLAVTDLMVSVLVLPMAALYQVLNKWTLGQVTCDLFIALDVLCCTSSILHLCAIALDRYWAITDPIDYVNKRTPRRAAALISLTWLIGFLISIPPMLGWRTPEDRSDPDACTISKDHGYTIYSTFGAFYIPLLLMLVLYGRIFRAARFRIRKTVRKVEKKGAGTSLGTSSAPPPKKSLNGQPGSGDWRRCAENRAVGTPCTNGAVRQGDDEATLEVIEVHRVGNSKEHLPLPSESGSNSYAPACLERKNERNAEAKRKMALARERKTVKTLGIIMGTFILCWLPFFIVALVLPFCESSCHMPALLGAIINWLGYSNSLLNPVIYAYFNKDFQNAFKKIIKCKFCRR

[2] = target: T2, Adrenergic receptor alpha-1 (Rattus norvegicus, UniProt P15823+P23944+P43140); test: Compound was tested for the binding affinity against rat cortical Alpha-1 adrenergic receptor by radioligand [3H]prazosin binding assay.; assay type: protein assay
T2 sequence (P15823 whole entry): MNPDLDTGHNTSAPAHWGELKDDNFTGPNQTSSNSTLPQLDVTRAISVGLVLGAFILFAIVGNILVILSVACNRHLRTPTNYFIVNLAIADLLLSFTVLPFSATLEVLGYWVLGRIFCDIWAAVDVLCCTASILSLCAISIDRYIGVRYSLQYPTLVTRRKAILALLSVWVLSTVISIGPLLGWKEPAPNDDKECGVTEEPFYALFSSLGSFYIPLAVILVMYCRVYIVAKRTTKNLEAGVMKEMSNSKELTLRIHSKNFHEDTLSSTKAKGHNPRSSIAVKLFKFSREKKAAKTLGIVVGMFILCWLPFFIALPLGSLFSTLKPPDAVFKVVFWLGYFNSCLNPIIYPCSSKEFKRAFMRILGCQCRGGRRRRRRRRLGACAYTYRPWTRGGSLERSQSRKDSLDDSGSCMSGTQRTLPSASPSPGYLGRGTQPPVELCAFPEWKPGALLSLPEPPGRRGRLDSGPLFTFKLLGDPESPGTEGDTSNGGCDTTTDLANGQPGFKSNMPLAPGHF
T2 sequence (P23944 whole entry): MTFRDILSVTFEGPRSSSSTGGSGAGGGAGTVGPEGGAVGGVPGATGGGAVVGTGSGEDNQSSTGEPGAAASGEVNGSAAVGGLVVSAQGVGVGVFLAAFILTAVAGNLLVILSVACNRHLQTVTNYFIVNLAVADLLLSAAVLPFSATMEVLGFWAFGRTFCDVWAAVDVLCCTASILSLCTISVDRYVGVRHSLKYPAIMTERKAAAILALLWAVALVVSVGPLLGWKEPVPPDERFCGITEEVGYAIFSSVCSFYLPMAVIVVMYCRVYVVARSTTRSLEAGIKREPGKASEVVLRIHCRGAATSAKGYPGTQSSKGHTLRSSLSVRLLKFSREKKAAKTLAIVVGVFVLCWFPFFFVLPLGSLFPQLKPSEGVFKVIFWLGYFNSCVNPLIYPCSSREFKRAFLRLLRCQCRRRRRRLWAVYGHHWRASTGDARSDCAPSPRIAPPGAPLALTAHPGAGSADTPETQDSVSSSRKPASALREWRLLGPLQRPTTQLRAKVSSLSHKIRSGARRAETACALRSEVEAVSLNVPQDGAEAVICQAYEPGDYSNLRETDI
T2 sequence (P43140 whole entry): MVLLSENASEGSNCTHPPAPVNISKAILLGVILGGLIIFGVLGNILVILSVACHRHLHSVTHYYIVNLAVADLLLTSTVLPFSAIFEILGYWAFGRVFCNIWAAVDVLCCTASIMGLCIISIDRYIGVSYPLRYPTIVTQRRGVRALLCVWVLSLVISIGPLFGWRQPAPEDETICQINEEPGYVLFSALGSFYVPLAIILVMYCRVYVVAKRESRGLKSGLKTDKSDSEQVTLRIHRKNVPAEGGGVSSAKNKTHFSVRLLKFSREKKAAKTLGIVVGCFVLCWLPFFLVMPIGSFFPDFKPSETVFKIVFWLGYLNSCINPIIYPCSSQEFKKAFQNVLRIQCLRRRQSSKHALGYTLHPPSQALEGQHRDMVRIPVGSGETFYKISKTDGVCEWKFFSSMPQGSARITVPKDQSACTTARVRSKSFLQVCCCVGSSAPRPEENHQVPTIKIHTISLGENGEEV

Adrenergic receptor beta = Adrenergic receptor beta (Rattus norvegicus, UniProt P18090+P10608+P26255); test: Compound was tested for the Binding affinity against rat cortical Beta adrenergic receptor by Radio ligand [3H]dihydroalprenolol binding assay.; assay type: protein assay
Histamine H1 receptor = Histamine H1 receptor (Rattus norvegicus, UniProt P31390); test: Compound was tested for the Binding affinity against rat cortical H1 receptor by Radio ligand [3H]pyrilamine binding assay
Mus musculus = test: Compound was tested for inhibition of Apomorphine induced climbing in Mice on subcutaneous administration; assay type: functional; conditions: sc
[3] = target: T3, 5-hydroxytryptamine receptor 3A (Mus musculus, UniProt P23979)
T3 sequence (P23979 whole entry): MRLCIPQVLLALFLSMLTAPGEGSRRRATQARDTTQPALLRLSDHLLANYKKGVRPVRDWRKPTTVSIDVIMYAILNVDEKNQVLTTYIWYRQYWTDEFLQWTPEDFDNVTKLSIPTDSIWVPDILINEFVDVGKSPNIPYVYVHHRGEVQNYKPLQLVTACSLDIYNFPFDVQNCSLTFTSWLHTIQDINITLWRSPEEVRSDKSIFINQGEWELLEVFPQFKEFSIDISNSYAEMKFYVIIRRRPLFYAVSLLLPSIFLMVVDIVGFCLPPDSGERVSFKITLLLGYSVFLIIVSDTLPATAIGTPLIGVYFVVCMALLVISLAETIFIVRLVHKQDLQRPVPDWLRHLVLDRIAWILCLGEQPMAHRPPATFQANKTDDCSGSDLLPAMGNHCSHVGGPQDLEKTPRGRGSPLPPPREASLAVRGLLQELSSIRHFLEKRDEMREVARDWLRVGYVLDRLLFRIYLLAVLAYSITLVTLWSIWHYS

Chain of Histamine H1 receptor (P31390 whole entry): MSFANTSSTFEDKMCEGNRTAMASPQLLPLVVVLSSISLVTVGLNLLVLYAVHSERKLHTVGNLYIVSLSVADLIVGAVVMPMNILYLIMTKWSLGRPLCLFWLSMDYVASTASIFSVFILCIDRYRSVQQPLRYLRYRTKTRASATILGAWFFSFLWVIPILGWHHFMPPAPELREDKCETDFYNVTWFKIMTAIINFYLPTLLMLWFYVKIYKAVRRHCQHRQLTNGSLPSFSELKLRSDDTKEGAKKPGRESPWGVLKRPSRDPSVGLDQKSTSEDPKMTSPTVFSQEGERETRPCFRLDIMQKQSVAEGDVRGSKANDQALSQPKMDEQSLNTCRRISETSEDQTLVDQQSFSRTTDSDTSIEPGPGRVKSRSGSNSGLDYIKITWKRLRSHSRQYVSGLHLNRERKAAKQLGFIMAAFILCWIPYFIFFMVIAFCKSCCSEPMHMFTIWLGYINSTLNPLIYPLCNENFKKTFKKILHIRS

Ki [1]: > 10 µM
Ki [2]: 5.3 µM
Ki (Adrenergic receptor beta): > 10 µM
Ki (Histamine H1 receptor): > 10 µM
Ki [3]: 4 µM
SMILES: COc1cc(NC(=O)C2CC2)c(Cl)cc1C(=O)N[C@H]1CCN(Cc2ccccc2)C1
ED50 (Mus musculus): 0.32 mg/kg
